Assay results: US20170008921A1, “C-3 NOVEL TRITERPENONE WITH C-28 REVERSE AMIDE DERIVATIVES AS HIV INHIBITORS” (HETERO RESEARCH FOUNDATION, priority 2015, published 2017)

Key:
[1] = Single dose oral pharmacokinetic study; type: in vivo; conditions: mouse, Mice oral PK @30 mg/kg, plasma, vehicle 10% Solutol+20% PEG; for AUC(0-t): read-out: AUC0-t; for Cmax: read-out: Cmax
Protocol: The test item was administered through oral route to animals (rat/mice) at 30 mg/kg dose in a suitable vehicle (10% Solutol+20% PEG) at 10 ml/kg dose volume. Blood samples (˜50 μL at each time point) were collected from retro-orbital plexus using K3 EDTA as anticoagulant in eppendorf tubes at defined time intervals 30 minutes, 1 hour, 2 hour, 4 hour, 8 hour, 24 hour & 48 hour under light ether anaesthesia. The samples were centrifuged at 3500×g to separate plasma and stored at −80° C. until analysis. Plasma 25 μl for Mice were processed as per described in sample preparation.
Standard solutions of the test compound 1 mg/mL solutions were prepared in DMSO and further dilutions were made in methanol. […] To the test compound plasma extraction was carried out using Acetonitrile precipitation. After reconstitution with solvent (50% Acetonitrile in Buffer) samples were analyzed by LCMSMS to get the concentrations to calculate PK Parameters.

[2] = Cyto-toxicity (MTT assay); type: cell-based
Protocol: On day 1 calculate the number of cells required for the assay and seed 3×10^4 cells in 200 μl per well. Weigh the compound and dissolve it in DMSO to get 10 mM stock which is further diluted to 3 mM and 1 mM. […] Add DMSO to controls in a way to obtain final concentration of solvent that is not greater than 1%. Incubate for 4 days in 5% CO2 incubator at 37° C. On day 4, 100 μl of medium was removed from each well without disturbing the cells. Add 10 μl of MTT reagent and incubate for 4 hours at 5% CO2 incubator at 37° C. for formation of crystals. Add 200 μl of 0.1N acidic isopropanol to dissolve the crystals and read the plate at 590 nm. The values are mentioned in below Table-3 and Table-3A.

SMILES	AUC(0-t) [1] [µg·h/mL]	Cmax [1] [ng/mL]	viability at 4 days, 0.01 µM [2] [%]	viability at 4 days, 0.1 µM [2] [%]	viability at 4 days, 1 µM [2] [%]
CC(C)C1=C2[C@H]3CC[C@@H]4[C@@]5(C)CC[C@H](OC(=O)[C@H]6C[C@@H](C(=O)O)C6(C)C)C(C)(C)[C@@H]5CC[C@@]4(C)[C@]3(C)CC[C@@]2(NC(=O)C(C)(C)NC(=O)Cc2ccc(Cl)cc2)CC1=O [Example 53, (1R,3S)-3-((((3aR,5aR,5bR,7aR,9S,11aR,11bR,13aS)-3a-(2-(2-(4-chlorophenyl)acetamido)-2-methylpropanamido)-1-isopropyl-5a,5b,8,8,11a-pentamethyl-2-oxo-3,3a,4,5,5a,5b,6,7,7a,8,9,10,11,11a,11b,12,13,13a-octadecahydro-2H-cyclopenta[a]chrysen-9-yl)oxy)carbonyl)-2,2-dimethylcyclobutane-1-carboxylic acid]	57.8	9750	–	–	–
CC(C)C1=C2[C@H]3CC[C@@H]4[C@@]5(C)CC[C@H](OC(=O)[C@H]6C[C@@H](C(=O)O)C6(C)C)C(C)(C)[C@@H]5CC[C@@]4(C)[C@]3(C)CC[C@@]2(NC(=O)C(C)(C)NC(=O)c2cnn3cccnc23)CC1=O [Example 54, (1R,3S)-3-((((3aR,5aR,5bR,7aR,9S,11aR,11bR,13aS)-1-isopropyl-5a,5b,8,8,11a-pentamethyl-3a-(2-methyl-2-(pyrazolo[1,5-a]pyrimidine-3-carboxamido)propanamido)-2-oxo-3,3a,4,5,5a,5b,6,7,7a,8,9,10,11,11a,11b,12,13,13a-octadecahydro-2H-cyclopenta[a]chrysen-9-yl)oxy)carbonyl)-2,2-dimethylcyclobutane-1-carboxylic acid]	402	29200	–	–	–
CC(C)C1=C2[C@H]3CC[C@@H]4[C@@]5(C)CC[C@H](OC(=O)[C@H]6C[C@@H](C(=O)O)C6(C)C)C(C)(C)[C@@H]5CC[C@@]4(C)[C@]3(C)CC[C@@]2(NC(=O)C(C)(C)NCc2ccc(Cl)cc2)CC1=O [Example 68, (1R,3S)-3-((((3aR,5aR,5bR,7aR,9S,11aR,11bR,13aS)-3a-(2-((4-chlorobenzyl)amino)-2-methylpropanamido)-1-isopropyl-5a,5b,8,8,11a-pentamethyl-2-oxo-3,3a,4,5,5a,5b,6,7,7a,8,9,10,11,11a,11b,12,13,13a-octadecahydro-2H-cyclopenta[a]chrysen-9-yl)oxy)carbonyl)-2,2-dimethylcyclobutane-1-carboxylic acid]	272	20000	–	–	–
Cc1cc(C(=O)NC(C)(C)C(=O)N[C@@]23CC[C@]4(C)[C@H](CC[C@@H]5[C@@]6(C)CC[C@H](OC(=O)[C@H]7C[C@@H](C(=O)O)C7(C)C)C(C)(C)[C@@H]6CC[C@]54C)C2=C(C(C)C)C(=O)C3)c(C)o1 [Example 33, (1R,3S)-3-((((3aR,5aR,5bR,7aR,9S,11aR,11bR,13aS)-3a-(2-(2,5-dimethylfuran-3-carboxamido)-2-methylpropanamido)-1-isopropyl-5a,5b,8,8,11a-pentamethyl-2-oxo-3,3a,4,5,5a,5b,6,7,7a,8,9,10,11,11a,11b,12,13,13a-octadecahydro-2H-cyclopenta[a]chrysen-9-yl)oxy)carbonyl)-2,2-dimethylcyclobutane-1-carboxylic acid]	231	11400	–	–	–
CCN1CCN(CC(=O)NC(C)(C)C(=O)N[C@@]23CC[C@]4(C)[C@H](CC[C@@H]5[C@@]6(C)CC[C@H](OC(=O)[C@H]7C[C@@H](C(=O)O)C7(C)C)C(C)(C)[C@@H]6CC[C@]54C)C2=C(C(C)C)C(=O)C3)CC1 [Example 9, (1R,3S)-3-((((3aR,5aR,5bR,7aR,9S,11aR,11bR,13aS)-3a-(2-(2-(4-ethylpiperazin-1-yl)acetamido)-2-methylpropanamido)-1-isopropyl-5a,5b,8,8,11a-pentamethyl-2-oxo-3,3a,4,5,5a,5b,6,7,7a,8,9,10,11,11a,11b,12,13,13a-octadecahydro-2H-cyclopenta[a]chrysen-9-yl)oxy)carbonyl)-2,2-dimethylcyclobutane-1-carboxylic acid]	–	–	100	53	14
CC(C)C1=C2[C@H]3CC[C@@H]4[C@@]5(C)CC[C@H](OC(=O)[C@H]6C[C@@H](C(=O)O)C6(C)C)C(C)(C)[C@@H]5CC[C@@]4(C)[C@]3(C)CC[C@@]2(NC(=O)C(C)(C)NC(=O)c2ccco2)CC1=O [Example 26, (1R,3S)-3-((((3aR,5aR,5bR,7aR,9S,11aR,11bR,13aS)-3a-(2-(furan-2-carboxamido)-2-methylpropanamido)-1-isopropyl-5a,5b,8,8,11a-pentamethyl-2-oxo-3,3a,4,5,5a,5b,6,7,7a,8,9,10,11,11a,11b,12,13,13a-octadecahydro-2H-cyclopenta[a]chrysen-9-yl)oxy)carbonyl)-2,2-dimethylcyclobutane-1-carboxylic acid]	–	–	55	20	0
CC(C)C1=C2[C@H]3CC[C@@H]4[C@@]5(C)CC[C@H](OC(=O)[C@H]6C[C@@H](C(=O)O)C6(C)C)C(C)(C)[C@@H]5CC[C@@]4(C)[C@]3(C)CC[C@@]2(NC(=O)C(C)(C)NC(=O)OC(C)(C)C)CC1=O [Example 75, (1R,3S)-3-((((3aR,5aR,5bR,7aR,9S,11aR,11bR,13aS)-3a-(2-((tert-butoxycarbonyl)amino)-2-methylpropanamido)-1-isopropyl-5a,5b,8,8,11a-pentamethyl-2-oxo-3,3a,4,5,5a,5b,6,7,7a,8,9,10,11,11a,11b,12,13,13a-octadecahydro-2H-cyclopenta[a]chrysen-9-yl)oxy)carbonyl)-2,2-dimethylcyclobutane-1-carboxylic acid]	–	–	63	17	2
CC(C)C1=C2[C@H]3CC[C@@H]4[C@@]5(C)CC[C@H](OC(=O)[C@H]6C[C@@H](C(=O)O)C6(C)C)C(C)(C)[C@@H]5CC[C@@]4(C)[C@]3(C)CC[C@@]2(NC(=O)C(C)(C)NC(=O)c2nccn2C)CC1=O [Example 16, (1R,3S)-3-((((3aR,5aR,5bR,7aR,9S,11aR,11bR,13aS)-1-isopropyl-5a,5b,8,8,11a-pentamethyl-3a-(2-methyl-2-(1-methyl-1H-imidazole-2-carboxamido)propanamido)-2-oxo-3,3a,4,5,5a,5b,6,7,7a,8,9,10,11,11a,11b,12,13,13a-octadecahydro-2H-cyclopenta[a]chrysen-9-yl)oxy)carbonyl)-2,2-dimethylcyclobutane-1-carboxylic acid]	–	–	37	11	2
Cc1cccnc1C(=O)NC(C)(C)C(=O)N[C@@]12CC[C@]3(C)[C@H](CC[C@@H]4[C@@]5(C)CC[C@H](OC(=O)[C@H]6C[C@@H](C(=O)O)C6(C)C)C(C)(C)[C@@H]5CC[C@]43C)C1=C(C(C)C)C(=O)C2 [Example 29, (1R,3S)-3-((((3aR,5aR,5bR,7aR,9S,11aR,11bR,13aS)-1-isopropyl-5a,5b,8,8,11a-pentamethyl-3a-(2-methyl-2-(3-methylpicolinamido)propanamido)-2-oxo-3,3a,4,5,5a,5b,6,7,7a,8,9,10,11,11a,11b,12,13,13a-octadecahydro-2H-cyclopenta[a]chrysen-9-yl)oxy)carbonyl)-2,2-dimethylcyclobutane-1-carboxylic acid]	–	–	29	3	2
Cc1ccc(C(=O)NC2(C(=O)N[C@@]34CC[C@]5(C)[C@H](CC[C@@H]6[C@@]7(C)CC[C@H](OC(=O)[C@H]8C[C@@H](C(=O)O)C8(C)C)C(C)(C)[C@@H]7CC[C@]65C)C3=C(C(C)C)C(=O)C4)CCCCC2)cn1 [Example 49, (1R,3S)-3-((((3aR,5aR,5bR,7aR,9S,11aR,11bR,13aS)-1-isopropyl-5a,5b,8,8,11a-pentamethyl-3a-(1-(6-methylnicotinamido)cyclohexane-1-carboxamido)-2-oxo-3,3a,4,5,5a,5b,6,7,7a,8,9,10,11,11a,11b,12,13,13a-octadecahydro-2H-cyclopenta[a]chrysen-9-yl)oxy)carbonyl)-2,2-dimethylcyclobutane-1-carboxylic acid]	–	–	56	12	4
CC(C)C1=C2[C@H]3CC[C@@H]4[C@@]5(C)CC[C@H](OC(=O)[C@H]6C[C@@H](C(=O)O)C6(C)C)C(C)(C)[C@@H]5CC[C@@]4(C)[C@]3(C)CC[C@@]2(NC(=O)C(C)(C)NC(=O)[C@@H]2CCCN2C(=O)OC(C)(C)C)CC1=O [Example 8, (1R,3S)-3-((((3aR,5aR,5bR,7aR,9S,11aR,11bR,13aS)-3a-(2-((S)-1-(tert-butoxycarbonyl)pyrrolidine-2-carboxamido)-2-methylpropanamido)-1-isopropyl-5a, 5b,8,8,11a-pentamethyl-2-oxo-3,3a,4,5,5a,5b,6,7,7a,8,9,10,11,11a,11b,12,13,13a-octadeca hydro-2H-cyclopenta[a]chrysen-9-yl)oxy)carbonyl)-2,2-dimethylcyclobutane-1-carboxylic acid]	–	–	28	5	3
